Key:
Format in all cases: in vitro ADME
[1] = In vitro plasma stability, dog plasma; details: male, pH 7.4, 5 μM, 37° C., sampling 0-360 minutes, read-out: T1/2 Dog
Description: (§1) Certain compounds from Table 1 were tested for their stability in plasma. The assay system comprised plasma from rat, dog or human (at least 3 donors, male, pooled) at pH 7.4, and (ii) an anticoagulant (sodium heparin or sodium citrate). Each test compound (5 μM) was incubated in plasma at 37° C. on a THERMOMIXER® with shaking. Three samples (n=3) were taken at each of seven sampling time points: 0, 10, 30, 60, 90, 180 and 360 minutes. The samples were immediately combined with 3 volumes (i.e., 3 times the volume of plasma) of acetonitrile containing 1% formic acid and an internal standard to terminate the reaction. AB SCIEX API 3000 LC-MS/MS analysis of the test compounds was performed without a standard curve. Plasma half-lives (T1/2) of the test compounds were determined from graphs of the percent remaining values using the peak area response ratio.

[2] = In vitro plasma stability, rat plasma; details: male, pH 7.4, 5 μM, 37° C., sampling 0-360 minutes, read-out: T1/2 Rat
Description: as §1

[3] = In vitro plasma stability, human plasma; details: male, pH 7.4, 5 μM, 37° C., sampling 0-360 minutes, read-out: T1/2 Human
Description: as §1

Structure (SMILES)	half-life at 5 μM [1] [min]	half-life at 5 μM [2] [min]	half-life at 5 μM [3] [min]
CN1N=C(c2ccc(C(=O)N3CCOCC3)cc2)C(C)(NO)C1=O (stereo not drawn) [Compound 81, 4-(Hydroxyamino)-1,4-dimethyl-3-[4-(morpholine-4-carbonyl)phenyl]-4,5-dihydro-1H-pyrazol-5-one]	84	148	76
CN1N=C(c2ccc(S(C)(=O)=O)c(N3CCOCC3)c2)C(C)(NO)C1=O (stereo not drawn) [Compound 82, 4-(Hydroxyamino)-3-[4-methanesulfonyl-3-(morpholin-4-yl)phenyl]-1,4-dimethyl-4,5-dihydro-1H-pyrazol-5-one]	56	69	46
COCCN(C)c1cc(C2=NN(C)C(=O)C2(C)NO)ccc1S(C)(=O)=O (stereo not drawn) [Compound 83, 4-(Hydroxyamino)-3-{4-methanesulfonyl-3-[(2-methoxyethyl)(methyl)amino]phenyl}-1,4-dimethyl-4,5-dihydro-1H-pyrazol-5-one]	66	89	51
CN1N=C(c2ccc(C(=O)N3CCC(F)(F)CC3)cc2)C(C)(NO)C1=O (stereo not drawn) [Compound 85, 3-[4-(4,4-Difluoropiperidine-1-carbonyl)phenyl]-4-(hydroxyamino)-1,4-dimethyl-4,5-dihydro-1H-pyrazol-5-one]	86	125	105
CCS(=O)(=O)c1ccc(C2=NN(C)C(=O)C2(C)NO)cc1 (stereo not drawn) [Compound 86, 3-[4-(Ethanesulfonyl)phenyl]-4-(hydroxyamino)-1,4-dimethyl-4,5-dihydro-1H-pyrazol-5-one]	39	61	47
CN1N=C(c2ccc(S(C)(=O)=O)c(N(C)C)c2)C(C)(NO)C1=O (stereo not drawn) [Compound 87, 3-[3-(Dimethylamino)-4-methanesulfonylphenyl]-4-(hydroxyamino)-1,4-dimethyl-4,5-dihydro-1H-pyrazol-5-one]	42	63	47
CN1CCN(c2cc(C3=NN(C)C(=O)C3(C)NO)ccc2S(C)(=O)=O)CC1 (stereo not drawn) [Compound 88, 4-(Hydroxyamino)-3-[4-methanesulfonyl-3-(4-methylpiperazin-1-yl)phenyl]-1,4-dimethyl-4,5-dihydro-1H-pyrazol-5-one]	42	65	49
CN1N=C(c2ccc(S(=O)(=O)c3ccccc3)cc2)C(C)(NO)C1=O (stereo not drawn) [Compound 89, 3-[4-(Benzenesulfonyl)phenyl]-4-(hydroxyamino)-1,4-dimethyl-4,5-dihydro-1H-pyrazol-5-one]	29	36	57
COCCN(C)S(=O)(=O)c1ccc(C2=NN(C)C(=O)C2(C)NO)cc1 (stereo not drawn) [Compound 90, 4-[4-(Hydroxyamino)-1,4-dimethyl-5-oxo-4,5-dihydro-1H-pyrazol-3-yl]-N-(2-methoxyethyl)-N-methylbenzene-1-sulfonamide]	37	72	49
CN1N=C(c2ccc(C(N)=O)cc2)C(C)(NO)C1=O (stereo not drawn) [Compound 92, 4-[4-(Hydroxyamino)-1,4-dimethyl-5-oxo-4,5-dihydro-1H-pyrazol-3-yl]benzamide]	166	270	169
CN1N=C(c2ccc(S(C)(=O)=O)c(N3CCNCC3)c2)C(C)(NO)C1=O (stereo not drawn) [Compound 93, 4-(Hydroxyamino)-3-[4-methanesulfonyl-3-(piperazin-1-yl)phenyl]-1,4-dimethyl-4,5-dihydro-1H-pyrazol-5-one]	32	66	35
C[C@H](NC(=O)c1ccc(C2=NN(C)C(=O)C2(C)NO)cc1)C(=O)O (stereo partly drawn) [Compound 94]	114	191	103
CN1N=C(c2ccc(S(C)(=O)=O)c(C(F)(F)F)c2)C(C)(NO)C1=O (stereo not drawn) [Compound 97, 4-(Hydroxyamino)-3-[4-methanesulfonyl-3-(trifluoromethyl)phenyl]-1,4-dimethyl-4,5-dihydro-1H-pyrazol-5-one]	32	23	25
CC1=NN(C)C(=O)C1(NO)c1cccc(C)c1 (stereo not drawn) [Compound 98, 4-(Hydroxyamino)-1,3-dimethyl-4-(3-methylphenyl)-4,5-dihydro-1H-pyrazol-5-one]	16	11	12
CN1N=C(c2ccc(S(C)(=O)=O)c(S(C)(=O)=O)c2)C(C)(NO)C1=O (stereo not drawn) [Compound 104, 3-(3,4-Dimethanesulfonylphenyl)-4-(hydroxyamino)-1,4-dimethyl-4,5-dihydro-1H-pyrazol-5-one]	33	59	28
CC1=NN(C)C(=O)C1(NO)/C(C)=N/OCC(C)C (stereo not drawn) [Compound 105, 4-(Hydroxyamino)-1,3-dimethyl-4-[1-[(2-methylpropoxy)imino]ethyl]-4,5-dihydro-1H-pyrazol-5-one]	4	4	6
CCO/N=C(\C)C1(NO)C(=O)N(C)N=C1C (stereo not drawn) [Compound 106, 4-[1-(Ethoxyimino)ethyl]-4-(hydroxyamino)-1,3-dimethyl-4,5-dihydro-1H-pyrazol-5-one]	8	7	6
CO/N=C(\C)C1(NO)C(=O)N(C)N=C1c1ccc(OC)cc1 (stereo not drawn) [Compound 107, 4-(Hydroxyamino)-4-[1-(methoxyimino)ethyl]-3-(4-methoxyphenyl)-1-methyl-4,5-dihydro-1H-pyrazol-5-one]	10	49	18
CN1N=C(c2ccc(Br)cc2)C(C)(NO)C1=O (stereo not drawn) [Compound 108, 3-(4-Bromophenyl)-4-(hydroxyamino)-1,4-dimethyl-4,5-dihydro-1H-pyrazol-5-one]	136	89	61
CN1N=C(c2ccccc2)C(NO)(c2ccccc2)C1=O (stereo not drawn) [Compound 109, 4-(Hydroxyamino)-1-methyl-3,4-diphenyl-4,5-dihydro-1H-pyrazol-5-one]	11	8	10
CCOC1=NN(c2ccccc2)C(=O)C1(NO)/C(C)=N/OC (stereo not drawn) [Compound 110, 3-Ethoxy-4-(hydroxyamino)-4-[1-(methoxyimino)ethyl]-1-phenyl-4,5-dihydro-1H-pyrazol-5-one]	12	62	11
CCOC1=NN(c2ccc(Br)cc2)C(=O)C1(NO)/C(C)=N/OC (stereo not drawn) [Compound 111, 1-(4-Bromophenyl)-3-ethoxy-4-(hydroxyamino)-4-[1-(methoxyimino)ethyl]-4,5-dihydro-1H-pyrazol-5-one]	24	23	29
CN1N=C(c2ccc(S(=O)(=O)N3CCC(F)(F)CC3)cc2)C(C)(NO)C1=O (stereo not drawn) [Compound 114, 3-{4-[(4,4-Difluoropiperidin-1-yl)sulfonyl]phenyl}-4-(hydroxyamino)-1,4-dimethyl-4,5-dihydro-1H-pyrazol-5-one]	42	49	25
C/C(=N\OCc1ccccc1)C1(NO)C(=O)N(C)N=C1C(C)(C)C (stereo not drawn) [Compound 115, 4-[1-[(Benzyloxy)imino]ethyl]-3-tert-butyl-4-(hydroxyamino)-1-methyl-4,5-dihydro-1H-pyrazol-5-one]	27	32	14
CO/N=C(\C)C1(NO)C(=O)N(c2ccccc2)N=C1OC (stereo not drawn) [Compound 116, 4-(Hydroxyamino)-3-methoxy-4-[1-(methoxyimino)ethyl]-1-phenyl-4,5-dihydro-1H-pyrazol-5-one]	18	48	9
C/C(=N\OC(C)(C)C)C1(NO)C(=O)N(C)N=C1C(C)(C)C (stereo not drawn) [Compound 117, 4-[1-[(tert-Butoxy)imino]ethyl]-3-tert-butyl-4-(hydroxyamino)-1-methyl-4,5-dihydro-1H-pyrazol-5-one]	34	36	16
C/C(=N\Oc1ccc(Br)cc1)C1(NO)C(=O)N(C)N=C1C(C)(C)C (stereo not drawn) [Compound 118, 4-[1-[(4-Bromophenoxy)imino]ethyl]-3-tert-butyl-4-(hydroxyamino)-1-methyl-4,5-dihydro-1H-pyrazol-5-one]	24	22	5
C/C(=N\Oc1ccccc1)C1(NO)C(=O)N(C)N=C1C(C)(C)C (stereo not drawn) [Compound 119, 3-tert-Butyl-4-(hydroxyamino)-1-methyl-4-[1-(phenoxyimino)ethyl]-4,5-dihydro-1H-pyrazol-5-one]	118	91	12
CC(C)S(=N)(=O)c1ccc(C2=NN(C)C(=O)C2(C)NO)cc1 (stereo not drawn) [Compound 120, 4-(Hydroxyamino)-3-{4-[imino(oxo)propan-2-yl-λ^6-sulfanyl]phenyl}-1,4-dimethyl-4,5-dihydro-1H-pyrazol-5-one]	31	56	32
